Legend:
[1] = test system: NF-κβ; assay: Nuclear translocation of NF-κβ in anti-CD3/CD28 stimulated naïve T cells; type: cell-based, mouse; conditions: lovastatin 2 h pretreatment, dose-dependent (5-50 μM); anti-CD3 and CD28 4 h
[2] = test system: EAE in SJL/J mice; assay: Active and passive EAE in SJL/J mice treated with lovastatin; type: in vivo, mouse; conditions: i.p. t or 5 mg/kg lovastatin every day, days 0-60 or started on day 10, p<0.001
[3] = test system: Rat Primary Astrrocytes; conditions: LPS 1.0 μg/ml, 24 h
[4] = test system: Microglia; conditions: 10 μM lovastatin or 5 mM NaPA 8 h, LPS 1.0 μg/ml, 24 h
[5] = test system: T cells; assay: Cytokine production by PLP139-151-primed DLN cells and naïve T cells; type: cell-based, mouse; conditions: lovastatin 10 and 20 μM, p<0.0001
Method: (A), (C), (E), (G), and (I) DNL cells were isolated on day 10 from PLP139-151 immunized SJL/J mice and cultured in vitro at 5×10^6 cells/ml in the presence of PLP139-151 (5 μg/ml) and lovastatin (10 and 20 μM). (B) (D), (F), (H), and (J) Naïve T cells (98% purified) isolated from lymph nodes were cultured in anti-CD3 and anti-CD28-precoated plates at 1×10^6 cells/ml with lovastatin (10 and 20 μM). The supernatants were collected at 48 h (for IFN-γ and TNF-α) and 120 h (for IL-4, IL-5, and IL-10) for cytokine measurements. […] The values are the means of triplicate determinations at each point, and the error bars represent +/−SD.

[6] = test system: KA-treated rats; assay: KA-induced seizure model (epilepsy model), rat hippocampus; type: in vivo; conditions: statin 10 mg/kg orally, 3 days after KA
Method: FIG. 45. Experimental design for the use of statins as a therapeutic for kinic acid induced seizures (epilepsy model).
FIG. 46. […] The rats were orally pre-treated (7 days before) with atorvastatin (LP; 10 mg/kg) prior to KA (10 mg/kg, i.p.). At 3 days after KA injection, neuronal cell death in hippocampus was examined using cresyl violet stain.
FIG. 47. […] The rats were orally pre-treated (7 days before) with atorvastatin (LP; 10 mg/kg) prior to KA (10 mg/kg, i.p.). At 3 days after KA injection, infiltration of macrophages in the CA1 and CA3 regions of the hippocampus was examined using immunofluorescent labeling against for ED-1, as a marker of monocytes.
The rats were orally pre-treated (7 days before) with atorvastatin (LP; 10 mg/kg) prior to KA (10 mg/kg, i.p.). At 3 days after KA injection, neuronal cell death in the CA1 (A) and CA3 (B) regions of the hippocampus was examined using TUNNEL assay.
FIG. 49. […] The rats were orally pre-treated (7 days before) with lovastatin (Lov; 10 mg/kg) prior to KA (10 mg/kg, i.p.). At 3 days after KA injection, neuronal cell death in hippocampus was examined using cresyl violet stain.
(§1) FIG. 50A-C. […] The rats were orally pre-treated (7 days before) with atorvastatin (LP; 10 mg/kg) prior to KA (10 mg/kg, i.p.). At 3 days after KA injection, the expression of inflammatory genes (TNF-α, IL-1β, and iNOS) in hippocampus using real time PCR. The expression of each gene was normalized with GAPDH expression.
as §1, with “51A-C.” for “50A-C.”, “lovastatin (Lov;” for “atorvastatin (LP;”
Seizure index: stage 1, facial clonus; stage 2, nodding; stage 3, forelimb clonus; stage 4, forelimb clonus with rearing; stage 5, rearing, jumping, and falling. The rats were orally pre-treated (7 days before) with lovastatin or atorvastatin (Lov or LP; 10 mg/kg) prior to KA (10 mg/kg, i.p.).

[7] = test system: Macrophages; conditions: 10 μM lovastatin or 5 mM NaPA 8 h, LPS 1.0 μg/ml, 24 h
[8] = 48 h, PLP-primed and naïve T cells

CC[C@H](C)C(=O)O[C@H]1C[C@@H](C)C=C2C=C[C@H](C)[C@H](CC[C@@H]3C[C@@H](O)CC(=O)O3)[C@H]21 [Lovastatin, lovastatin]
nuclear translocation of NF-κβ [1]: inhibits
severity of EAE disease (mean clinical scores) [2]: significantly less
TNF-α ([3]; 10 μM lovastatin or 5 mM NaPA 8 h, LPS only 5.3 +/− 0.8): 0.3 +/− 0.05 ng/24 h/mg protein
Il-1β ([3]; 10 μM lovastatin or 5 mM NaPA 8 h, LPS only 10.4 +/− 1.5): 0.8 +/− 0.1 ng/24 h/mg protein
IL-6 ([3]; 10 μM lovastatin or 5 mM NaPA 8 h, LPS only 136.5 +/− 16.8): 0.8 +/− 0.1 ng/24 h/mg protein
NO ([3]; 10 μM lovastatin or 5 mM NaPA 8 h serum free, LPS only 25.3 +/− 3.2): 5.2 +/− 0.4 n mol/24 h/mg protein
TNF-α ([4]; LPS only 14.5 +/− 2.1): 0.9 +/− 0.1 ng/24 h/mg protein
Il-1β ([4]; LPS only 28.2 +/− 3.4): 2.1 +/− 0.3 ng/24 h/mg protein
NO ([4]; LPS only 81.2 +/− 6.9): 5.9 +/− 0.4 n mol/24 h/mg protein
IL-6 ([4]; LPS only 295.6 +/− 33.5): 7.8 +/− 1.1 ng/24 h/mg protein
IFN-γ in supernatants [5, 8]: significantly reduced
TNF-α in supernatants [5, 8]: significantly reduced
IL-4 in supernatants ([5]; 120 h): significantly increased
IL-5 in supernatants ([5]; 120 h): significantly increased
IL-10 in supernatants ([5]; 120 h): significantly increased
KA-induced neuronal cell death in hippocampus (cresyl violet stain) ([6]; 7 days before KA 10 mg/kg i.p.): inhibited
expression of inflammatory genes (TNF-α, IL-1β, and iNOS) induced by KA in hippocampus (real time PCR) ([6]; 7 days before KA): inhibited
TNF-α ([7]; LPS only 18.6 +/− 2.3): 1.2 +/− 0.1 ng/24 h/mg protein
Il-1β ([7]; LPS only 34.6 +/− 4.5): 2.3 +/− 0.3 ng/24 h/mg protein
NO ([7]; LPS only 118.5 +/− 12.5): 7.2 +/− 0.9 n mol/24 h/mg protein
IL-6 ([7]; LPS only 350.0 +/− 27.6): 8.3 +/− 0.6 ng/24 h/mg protein

Source: patent publication US20070270350A1, “Methods and Compositions for the Prevention and Treatment of Inflammatory Diseases or Conditions” (MUSC FOUNDATION FOR RESEARCH DEVELOPMENT, priority 2003, published 2007)
